Where a name gives a salt, the structure may show the parent alone. Read-outs that look alike come from different tables or passages of the source.
How the values were obtained:
Male C57Bl/6J mice = experiment: Marble burying test; type: in vivo; set-up: key: −: No reduction in number of marbles buried; +: Significant reduction in number of marbles buried (P < 0.05 vs vehicle)
Method: The marble burying assay is used to evaluate the anxiolytic activity of a test compound. After placement in a novel cage containing glass marbles, mice will bury the marbles. Acute administration of anxiolytic agents, as well as antidepressants, decrease this activity at non-sedating doses. Male C57Bl/6J mice from Jackson Laboratories were used in this study and were acclimatized to the experimental room for at least 1 hour prior to testing. Mice (n=10 per group) were administered sterile water or test compound intraperitoneally (i.p.) or orally by gavage (p.o.), or the positive control chlordiazepoxide (15 mg/kg, i.p.), in 10 mL/kg injection volumes, and returned to their home cages for a 30-minute pretreatment period. The mice were then placed individually in clean cages, containing hard wood bedding and twenty black marbles placed in spaced rows of 4×5. After a 30-minute test session, the number of buried marbles was counted. A marble was considered buried if it was pushed at least two thirds into the bedding. Locomotor activity was monitored by measuring the distance traveled using an overhead camera and Video Tracker Software (ViewPoint Life Sciences Software, France). A reduction in the number of marbles buried relative to the vehicle condition indicates an anxiolytic drug-like effect.

compound-treated mice = experiment: Neuropharmacological assay (SmartCube): behavioral activity signature and minimal effective dose; type: in vivo; conditions: for Potency: minimal effective dose (MED), binned / minimal effective dose: MED = dose having 50% or more total activity; for AD: ADHD (probability of activity signature) / AG: analgesic (probability of activity signature) / AX: anxiolytic (probability of activity signature) / CE: cognitive enhancer (probability of activity signature) / DP: anti-depressant (probability of activity signature) / MS: mood stabilizer (probability of activity signature) / PS: anti-psychotic (probability of activity signature) / SD: sedative hypnotic (probability of activity signature) / UN: uncharacterized CNS activity (probability of activity signature): i.p. 15 min before test, most efficacious dose(s); for minimal effective dose: Mus musculus, ip
Summary of the method: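 Mice dosed i.p. 15 min before test, compound in N-methyl-2-pyrrolidone/PEG/propylene glycol, 3 doses; video-captured behavior matched to reference-drug signatures, giving per-class probabilities at most efficacious dose. MED from doses typically 0.3–30 mpk, defined as lowest dose with ≥50% total activity.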

[1] = read-out: Potency: minimal effective dose (MED)
[2] = read-out: Potency: minimal effective dose (MED), binned

| SMILES | Marbles Buried (Male C57Bl/6J mice; 3 mg/kg (i.p.)) | Marbles Buried (Male C57Bl/6J mice; 10 mg/kg (i.p.)) | Potency: minimal effective dose (MED), binned (compound-treated mice) | AD: ADHD (probability of activity signature) (compound-treated mice) | AG: analgesic (probability of activity signature) (compound-treated mice) | AX: anxiolytic (probability of activity signature) (compound-treated mice) | CE: cognitive enhancer (probability of activity signature) (compound-treated mice) | DP: anti-depressant (probability of activity signature) (compound-treated mice) | MS: mood stabilizer (probability of activity signature) (compound-treated mice) | PS: anti-psychotic (probability of activity signature) (compound-treated mice) | SD: sedative hypnotic (probability of activity signature) (compound-treated mice) | UN: uncharacterized CNS activity (probability of activity signature) (compound-treated mice) | Marbles Buried (Male C57Bl/6J mice; 1 mg/kg (i.p.)) | minimal effective dose (compound-treated mice; [1]) | minimal effective dose (compound-treated mice; [2]) |
| --- | --- | --- | --- | --- | --- | --- | --- | --- | --- | --- | --- | --- | --- | --- | --- |
| C[C@@H]1OCc2cccc(Cl)c2[C@H]1N (single isomer, unassigned) [Example 160] | − | + | A (≤3 mpk) | + (LOQ ≤ + <5%) | ++ (5% ≤ ++ <25%) | ++ (5% ≤ ++ <25%) | ++ (5% ≤ ++ <25%) | + (LOQ ≤ + <5%) | + (LOQ ≤ + <5%) | ++ (5% ≤ ++ <25%) | + (LOQ ≤ + <5%) | +++ (25% ≤ +++ <50%) |  |  |  |
| CC[C@@H]1OCc2ccccc2[C@H]1N (single isomer, unassigned) [Compound 195] |  |  |  |  |  |  |  |  |  |  |  |  | − |  |  |
| CC[C@@H]1OCc2ccccc2[C@H]1N (single isomer, unassigned) [Example 195] | − | + | A (≤3 mpk) | + (LOQ ≤ + <5%) | ++ (5% ≤ ++ <25%) | ++ (5% ≤ ++ <25%) | ++ (5% ≤ ++ <25%) | ++ (5% ≤ ++ <25%) | + (LOQ ≤ + <5%) | ++ (5% ≤ ++ <25%) | ++ (5% ≤ ++ <25%) | ++++ (50% ≤ ++++) |  |  |  |
| C[C@@H]1OCc2cccc(Cl)c2[C@H]1N (single isomer, unassigned) [Compound 160] |  |  |  |  |  |  |  |  |  |  |  |  | − |  |  |
| Cl.NC1CCOCc2c(Cl)cccc21 (stereo not drawn) [Example 40] |  |  |  | + (LOQ ≤ + <5%) | ++ (5% ≤ ++ <25%) | +++ (25% ≤ +++ <50%) | ++ (5% ≤ ++ <25%) | + (LOQ ≤ + <5%) | + (LOQ ≤ + <5%) | ++ (5% ≤ ++ <25%) | + (LOQ ≤ + <5%) | ++ (5% ≤ ++ <25%) |  | 3 to 10 mg/kg |  |
| N[C@H]1COCc2ccc(Cl)c(Cl)c21 (single isomer, unassigned) [Example 120] |  |  |  | + (LOQ ≤ + <5%) | ++ (5% ≤ ++ <25%) | +++ (25% ≤ +++ <50%) | ++ (5% ≤ ++ <25%) | ++ (5% ≤ ++ <25%) | + (LOQ ≤ + <5%) | ++ (5% ≤ ++ <25%) | ++ (5% ≤ ++ <25%) | ++ (5% ≤ ++ <25%) |  | 3 to 10 mg/kg |  |
| Cc1ccc(C)c2c1COC[C@H]2N (single isomer, unassigned) [Example 165] |  |  |  | + (LOQ ≤ + <5%) | + (LOQ ≤ + <5%) | ++ (5% ≤ ++ <25%) | ++ (5% ≤ ++ <25%) | ++ (5% ≤ ++ <25%) | + (LOQ ≤ + <5%) | ++ (5% ≤ ++ <25%) | + (LOQ ≤ + <5%) | ++++ (50% ≤ ++++) |  |  | 3 to 10 mg/kg |
| C[C@@H]1OC[C@@H](N(C)C)c2ccccc21 (stereo in doubt) [Example 239, cis-N,N,1-trimethylisochroman-4-amine hydrochloride] |  |  |  | ++ (5% ≤ ++ <25%) | ++ (5% ≤ ++ <25%) | ++ (5% ≤ ++ <25%) | ++ (5% ≤ ++ <25%) | ++ (5% ≤ ++ <25%) | + (LOQ ≤ + <5%) | ++ (5% ≤ ++ <25%) | + (LOQ ≤ + <5%) | +++ (25% ≤ +++ <50%) |  |  | 3 to 10 mg/kg |
| Cl.N[C@H]1c2ccccc2CO[C@@H]1CF (single isomer, unassigned) [Example 276, cis-3-(fluoromethyl)isochroman-4-amine hydrochloride] |  |  |  | + (LOQ ≤ + <5%) | + (LOQ ≤ + <5%) | + (LOQ ≤ + <5%) | + (LOQ ≤ + <5%) | + (LOQ ≤ + <5%) | ++ (5% ≤ ++ <25%) | + (LOQ ≤ + <5%) | ++ (5% ≤ ++ <25%) | + (LOQ ≤ + <5%) |  |  | 3 to 10 mg/kg |
| Cc1ccc(Cl)c2c1[C@H](N)COC2 (single isomer, unassigned) [Example 175] |  |  |  | + (LOQ ≤ + <5%) | ++ (5% ≤ ++ <25%) | ++ (5% ≤ ++ <25%) | ++ (5% ≤ ++ <25%) | ++ (5% ≤ ++ <25%) | + (LOQ ≤ + <5%) | ++ (5% ≤ ++ <25%) | + (LOQ ≤ + <5%) | ++++ (50% ≤ ++++) |  |  | < 3 mg/kg |
| C#CCN[C@H]1COCc2ccccc21.Cl [Example 266] |  |  |  | + (LOQ ≤ + <5%) | + (LOQ ≤ + <5%) | + (LOQ ≤ + <5%) | + (LOQ ≤ + <5%) | + (LOQ ≤ + <5%) | ++ (5% ≤ ++ <25%) | + (LOQ ≤ + <5%) | ++ (5% ≤ ++ <25%) | + (LOQ ≤ + <5%) |  |  | 3 to 10 mg/kg |
| Cc1cccc2c1[C@H](N)CO[C@H]2C [Example 227] |  |  |  | + (LOQ ≤ + <5%) | ++ (5% ≤ ++ <25%) | ++ (5% ≤ ++ <25%) | + (LOQ ≤ + <5%) | + (LOQ ≤ + <5%) | + (LOQ ≤ + <5%) | ++ (5% ≤ ++ <25%) | + (LOQ ≤ + <5%) | ++++ (50% ≤ ++++) |  |  | 3 to 10 mg/kg |
| C[C@H]1OCc2ccc(F)cc2[C@@H]1N.Cl [Example 89] |  |  |  | + (LOQ ≤ + <5%) | ++ (5% ≤ ++ <25%) | ++ (5% ≤ ++ <25%) | ++ (5% ≤ ++ <25%) | + (LOQ ≤ + <5%) | + (LOQ ≤ + <5%) | ++ (5% ≤ ++ <25%) | ++ (5% ≤ ++ <25%) | ++++ (50% ≤ ++++) |  | < 3 mg/kg |  |
| C[C@@H]1OCc2ccc(F)cc2[C@@H]1N [Example 185] |  |  |  | + (LOQ ≤ + <5%) | ++ (5% ≤ ++ <25%) | +++ (25% ≤ +++ <50%) | ++ (5% ≤ ++ <25%) | + (LOQ ≤ + <5%) | + (LOQ ≤ + <5%) | ++ (5% ≤ ++ <25%) | + (LOQ ≤ + <5%) | ++++ (50% ≤ ++++) |  |  | < 3 mg/kg |

— US11077090B2, “Compounds and compositions and uses thereof” (Sunovion Pharmaceuticals Inc., priority 2016, dated 2021)
